# According to patent publication EP4678634A1, “ANDROGEN RECEPTOR MODULATORS AND USES THEREOF” (Haihe Biopharma Co., Ltd., priority 2023, dated 2024):
# Target: T1, Androgen receptor (AR) (Homo sapiens, UniProt P10275)
# T1 construct: expressed in transfected cells; host or cells: HEK293T (AR+ARE/Luc)
# T1 sequence (P10275 1-920): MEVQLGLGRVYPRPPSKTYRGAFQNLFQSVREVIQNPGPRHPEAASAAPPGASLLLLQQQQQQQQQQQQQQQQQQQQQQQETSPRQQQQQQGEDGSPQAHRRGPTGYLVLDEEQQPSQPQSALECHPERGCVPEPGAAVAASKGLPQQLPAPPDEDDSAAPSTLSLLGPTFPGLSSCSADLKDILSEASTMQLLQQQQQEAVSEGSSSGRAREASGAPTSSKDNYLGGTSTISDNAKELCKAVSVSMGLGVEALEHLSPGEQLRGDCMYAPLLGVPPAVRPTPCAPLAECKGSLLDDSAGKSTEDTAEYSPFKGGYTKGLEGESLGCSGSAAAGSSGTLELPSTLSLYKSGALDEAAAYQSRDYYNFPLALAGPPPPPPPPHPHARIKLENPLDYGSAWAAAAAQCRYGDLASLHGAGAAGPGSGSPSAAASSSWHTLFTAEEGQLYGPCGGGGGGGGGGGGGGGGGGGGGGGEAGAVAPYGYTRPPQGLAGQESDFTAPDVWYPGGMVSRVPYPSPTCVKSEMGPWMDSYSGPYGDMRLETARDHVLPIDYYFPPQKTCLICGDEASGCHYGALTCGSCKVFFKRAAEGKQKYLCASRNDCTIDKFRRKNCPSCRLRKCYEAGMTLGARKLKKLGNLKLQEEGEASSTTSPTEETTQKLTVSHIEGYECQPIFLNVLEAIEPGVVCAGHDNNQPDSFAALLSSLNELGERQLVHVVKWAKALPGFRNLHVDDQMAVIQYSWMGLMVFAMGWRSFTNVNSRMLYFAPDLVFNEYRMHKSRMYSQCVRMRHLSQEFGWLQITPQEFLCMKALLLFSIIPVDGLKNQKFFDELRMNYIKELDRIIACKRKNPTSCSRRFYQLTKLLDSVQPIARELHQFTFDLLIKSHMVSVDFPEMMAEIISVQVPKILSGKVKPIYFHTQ
# Assay: Androgen receptor (AR) reporter gene assay (luciferase)
# Type: cell-based
# Details: AR+ARE/Luc HEK293T cells, stimulated with 11-KDHT, 24h incubation, Bright-Lite luminescence; read-out: HEK293 Luc IC50
# Experimental: Androgen receptor (AR) reporter gene assay
# Experimental reagents: 11-Ketodihydrotestosterone (11-KDHT) was purchased from MCE (cat.HY-135794); Enzalutamide (MDV3100) was purchased from Selleck (cat.S1250); Bright-Lite Luciferase Assay kit was purchased from Vazyme (cat.DD1204-01);
# • 1. dissolve the described compounds in 100% DMSO at a final concentration of 10 mM. 100 nL each of 400X compound to be tested and 400X 11-KDHT (40 nM) were added to a 384-well assay plate with Echo, followed by 20 µL of complete medium, and centrifuged at 1000 rpm for 1 min, and oscillated for 20-30 min at room temperature. • 2. 20 µL of AR+ARE/Luc HEK293T cells (10,000 cells/well) were inoculated into the assay plate containing the compounds and 11-KDHT, and centrifuged at 1000 rpm for 1 min. The assay plate was incubated in a 37 °C CO2 incubator for 24h. • 3. 40 µL of Bright-Lite assay reagent was transferred to each well of the assay plate, centrifuged at 1000 rpm for 1 min, and shaken for 2 min at room temperature protected from light. Luminescence values (RLU) were measured using Envision. Based on the results, the IC50 values of the compounds described were calculated. Table 1 HEK293-Luc% inhibition IC50 of representative compounds
row,SMILES,IC50 [nM]
1,"ClCCOc1c(Cl)cc2c(c1Cl)CCCC2c1ccc2[nH]ncc2c1 (stereo not drawn) [HANT-100, 5-(5,7-dichloro-6-(2-chloroethoxy)-1,2,3,4-tetrahydronaphthalen-1-yl)-1H-indazole]",1 to 500
2,Oc1ccc(C2CCCc3c2cc(Cl)c(OCCCl)c3Cl)cn1 (stereo not drawn) [HANT-101],1000 to 2000
3,"Oc1ccc(C2CCCc3c2cc(Cl)c(OCCCl)c3Cl)nc1 (stereo not drawn) [HANT-102, 6-(5,7-dichloro-6-(2-chloroethoxy)-1,2,3,4-tetrahydronaphthalen-1-yl)pyridin-3-ol]",500 to 1000
4,"Fc1cc2c(c(F)c1OCCCl)CCCC2c1ccc2[nH]ncc2c1 (stereo not drawn) [HANT-103, 5-(6-(2-chloroethoxy)-5,7-difluoro-1,2,3,4-tetrahydronaphthalen-1-yl)-1H indazole]",500 to 1000
5,"N#Cc1cc2c(c(Cl)c1OCCCl)CCCC2c1ccc(O)cc1 (stereo not drawn) [HANT-105, 4-chloro-3-(2-chloroethoxy)-8-(4-hydroxyphenyl)-5,6,7,8-tetrahydronaphthalene-2-carbonitrile]",1 to 500
6,"N#Cc1c2c(cc(Cl)c1OCCCl)C(c1ccc(O)cc1)CCC2 (stereo not drawn) [HANT-106, 3-chloro-2-(2-chloroethoxy)-5-(4-hydroxyphenyl)-5,6,7,8-tetrahydronaphthalene-1-carbonitrile]",1 to 500
7,"Oc1ccc(C2CCc3cc(OCCCl)c(Cl)cc32)cc1 (stereo not drawn) [HANT-107, 4-(6-chloro-5-(2-chloroethoxy)-2,3-dihydro-1H-inden-1-yl)phenol]",1000 to 2000
8,"Oc1ccc(C2CCc3c2ccc(OCCCl)c3Cl)cc1 (stereo not drawn) [HANT-108, 4-(4-chloro-5-(2-chloroethoxy)-2,3-dihydro-1H-inden-1-yl)phenol]",1 to 500
9,Oc1ccc(C2CCCc3c2cc(Cl)c(OCCCl)c3Cl)cc1F (stereo not drawn) [HANT-109],1000 to 2000
10,"Oc1ccc(C2CCCc3c2cc(Cl)c(OCCCl)c3Cl)c(F)c1 (stereo not drawn) [HANT-110, 4-(5,7-dichloro-6-(2-chloroethoxy)-1,2,3,4-tetrahydronaphthalen-1-yl)-3-fluorophenol]",1 to 500
11,ClCCOc1c(Cl)cc2c(c1Cl)CCCC2c1ccc2[nH]cnc2c1 (stereo not drawn) [HANT-112],500 to 1000
12,"ClCCOc1c(Cl)cc2c(c1Cl)CCCC2c1ccc2[nH]nnc2c1 (stereo not drawn) [HANT-113, 5-(5,7-dichloro-6-(2-chloroethoxy)-1,2,3,4-tetrahydronaphthalen-1-yl)-1H-benzo[d][1,2,3]triaz ole]",500 to 1000
13,O=c1[nH]c2ccc(C3CCCc4c3cc(Cl)c(OCCCl)c4Cl)cc2o1 (stereo not drawn) [HANT-114],1 to 500
14,Cn1c(=O)[nH]c2ccc(C3CCCc4c3cc(Cl)c(OCCCl)c4Cl)cc21 (stereo not drawn) [HANT-117],1000 to 2000
15,ClCCOc1c(Cl)cc2c(c1Cl)CCCC2N1CCc2cn[nH]c2C1 (stereo not drawn) [HANT-126],500 to 1000
16,Cn1ncc2cc(C3CCCc4c3cc(Cl)c(OCCCl)c4Cl)ccc21 (stereo not drawn) [HANT-131],> 2000
17,ClCCOc1c(Cl)cc2c(c1Cl)CCCC2c1ccc2cn[nH]c2c1 (stereo not drawn) [HANT-134],1 to 500
18,O=C1Cc2cc(C3CCCc4c3cc(Cl)c(OCCCl)c4Cl)ccc2N1 (stereo not drawn) [HANT-135],1 to 500
19,COc1cc(O)ccc1C1CCCc2c1cc(Cl)c(OCCCl)c2Cl (stereo not drawn) [HANT-137],1000 to 2000
20,"N#Cc1cc2c(c(Cl)c1OCCCl)CCCC2c1ccc2[nH]ncc2c1 (stereo not drawn) [HANT-144A, 4-chloro-3-(2-chloroethoxy)-8-(1H-indazol-5-yl)-5,6,7,8-tetrahydronaphthalene-2-carbonitrile]",> 2000
21,"N#Cc1cc2c(c(Cl)c1OCCCl)CCCC2c1ccc2[nH]ncc2c1 (stereo not drawn) [HANT-144B, 4-chloro-3-(2-chloroethoxy)-8-(1H-indazol-5-yl)-5,6,7,8-tetrahydronaphthalene-2-carbonitrile]",1 to 500
22,N#Cc1cc2c(c(Cl)c1OCCCl)CCCC2c1cc2cn[nH]c2cn1 (stereo not drawn) [HANT-149],1 to 500

# Results, then the molecule that gave them:
row,IC50 [nM],SMILES
1,1 to 500,"CN1CCc2c(cc(Cl)c(OCCCl)c2Cl)C1c1ccc2[nH]ncc2c1 (racemic) [HANT-146, 5,7-dichloro-6-(2-chloroethoxy)-1-(1H-indazol-5-yl)-2-methyl-1,2,3,4-tetrahydroisoquinoline]"
2,1 to 500,"N#Cc1cc2c(c(Cl)c1OCCCl)CCCC2Nc1cnc2[nH]ncc2c1 (racemic) [HANT-192, 8-((1H-pyrazolo[3,4-b]pyridin-5-yl)amino)-4-chloro-3-(2-chloroethoxy)-5,6,7,8-tetrahydronaph thalene-2-carbonitrile]"
3,1 to 500,N#Cc1cc2c(c(Cl)c1OCCCl)CCCC2c1cnc(N)nc1 (racemic) [HANT-204]
4,1 to 500,"CN1CCc2c(cc(Cl)c(OCCCl)c2Cl)C1c1ccc(O)cc1 (stereo not drawn) [HANT-115, 4-(5,7-dichloro-6-(2-chloroethoxy)-2-methyl-1,2,3,4-tetrahydroisoquinolin-1-yl)phenol]"
5,1 to 500,ClCCOc1c(Cl)cc2c(c1Cl)CCC[C@H]2c1ccc2[nH]ncc2c1 [HANT-118]
6,1 to 500,CCCOc1c(C#N)cc2c(c1Cl)CCCC2Nc1ccc(OC)nc1 (stereo not drawn) [HANT-121]
7,1 to 500,N#Cc1cc2c(c(Cl)c1OCCCl)CCCC2Nc1ccc(OCCO)nc1 (stereo not drawn) [HANT-122]
8,500 to 1000,OC1CCN(C2CCCc3c2cc(Cl)c(OCCCl)c3Cl)CC1 (stereo not drawn) [HANT-123]
9,> 2000,"Oc1ccc2c(c1)CCN(C1CCCc3c1cc(Cl)c(OCCCl)c3Cl)C2 (stereo not drawn) [HANT-124, 2-(5,7-dichloro-6-(2-chloroethoxy)-1,2,3,4-tetrahydronaphthalen-1-yl)-1,2,3,4-tetrahydroisoqui nolin-6-ol]"
10,1 to 500,ClCCOc1c(Cl)cc2c(c1Cl)CCCC2N1CCc2[nH]ncc2C1 (stereo not drawn) [HANT-125]
11,500 to 1000,"ClCCOc1c(Cl)cc2c(c1Cl)CCCN2c1ccc2[nH]ncc2c1 [HANT-127, 5,7-dichloro-6-(2-chloroethoxy)-1-(1H-indazol-5-yl)-1,2,3,4-tetrahydroquinoline]"
12,> 2000,"CNC(=O)c1n[nH]c2ccc(C3CCCc4c3cc(Cl)c(OCCCl)c4Cl)cc12 (stereo not drawn) [HANT-132, 5-(5,7-dichloro-6-(2-chloroethoxy)-1,2,3,4-tetrahydronaphthalen-1-yl)-N-methyl-1H-indazole-3-carboxamide]"
13,1000 to 2000,"Nc1n[nH]c2ccc(C3CCCc4c3cc(Cl)c(OCCCl)c4Cl)cc12 (stereo not drawn) [HANT-133, 5-(5,7-dichloro-6-(2-chloroethoxy)-1,2,3,4-tetrahydronaphthalen-1-yl)-1H-indazol-3-amine]"
14,500 to 1000,"N#Cc1cc2c(c(Cl)c1OCCCl)CCCC2c1ccc2[nH]ncc2n1 (stereo not drawn) [HANT-148, 4-chloro-3-(2-chloroethoxy)-8-(1H-pyrazolo[4,3-b]pyridin-5-yl)-5,6,7,8-tetrahydronaphthalene-2-carbonitrile]"
15,1 to 500,"N#Cc1cc2c(c(Cl)c1OCCCl)CCCC2c1cnc2[nH]ncc2c1 (stereo not drawn) [HANT-150A, 4-chloro-3-(2-chloroethoxy)-8-(1H-pyrazolo[3,4-b]pyridin-5-yl)-5,6,7,8-tetrahydronaphthalene-2-carbonitrile]"
16,> 2000,"N#Cc1cc2c(c(Cl)c1OCCCl)CCCC2c1cnc2[nH]ncc2c1 (stereo not drawn) [HANT-150B, 4-chloro-3-(2-chloroethoxy)-8-(1H-pyrazolo[3,4-b]pyridin-5-yl)-5,6,7,8-tetrahydronaphthalene-2-carbonitrile]"
17,> 2000,"ClCCOc1c(Cl)cc2c(c1Cl)CCCN2c1cc2cn[nH]c2cn1 [HANT-164, 5,7-dichloro-6-(2-chloroethoxy)-1-(1H-pyrazolo[3,4-c]pyridin-5-yl)-1,2,3,4-tetrahydroquinoline]"
18,> 2000,"ClCCOc1c(Cl)cc2c(c1Cl)CCCN2c1ccc2[nH]ncc2n1 [HANT-165, 5,7-dichloro-6-(2-chloroethoxy)-1-(1H-pyrazolo[4,3-b]pyridin-5-yl)-1,2,3,4-tetrahydroquinoline]"
19,500 to 1000,"ClCCOc1c(Cl)cc2c(c1Cl)CCCN2c1cnc2[nH]ncc2c1 [HANT-166, 5,7-dichloro-6-(2-chloroethoxy)-1-(1H-pyrazolo[3,4-b]pyridin-5-yl)-1,2,3,4-tetrahydroquinoline]"
20,500 to 1000,N#Cc1cc2c(c(Cl)c1OCCCl)CCCC2Nc1ccc(N2CCOCC2)nc1 (stereo not drawn) [HANT-170]
